Like-named read-outs stand apart in the source and are kept apart here.
Assay: clinical food-effect pharmacokinetic study in healthy human men, fasted vs high-fat breakfast
Conditions: male, in vivo, po, 40 mg; for Tmax / Cmax / half-life: single oral 40 mg; for AUC(0-inf): single oral 40 mg dose of hot melt extrusion composition; for half-life: read-out: Apparent Terminal t1/2 (converted)
Procedure: The pharmacokinetic profile of this composition of suvorexant was also tested by administering a single dose of the formulation to healthy human men. […] In the second period of this clinical study, the 7 subjects in each treatment groups were crossed over and received the other treatment.
The fed/fasted GMR and 90% confidence intervals for AUC0-inf were 0.98 (0.90, 1.07).

Cc1ccc(-n2nccn2)c(C(=O)N2CCN(c3nc4cc(Cl)ccc4o3)CC[C@H]2C)c1 [Suvorexant, 5-chloro-2-{(5R)-5-methyl-4-[5-methyl-2-(2H-1,2,3-triazol-2-yl)benzoyl]-1,4-diazepan-1-yl}-1,3-benzoxazole]
Tmax (Tmax (Suvorexant Fed/Suvorexant Fasted), fed/fasted): 1.5 h
AUC(0-inf) (Fasted (8-hour fast)): 13.2 µM·h
AUC(0-inf) (Fed (standard high-fat breakfast)): 13 µM·h
Cmax (Fasted): 1000 nM
half-life (Fasted): 10.9 h
Tmax (Fasted, read-out: Tmax): 2 h
Cmax (Fed (high-fat breakfast)): 1100 nM
half-life (Fed (high-fat breakfast)): 11.8 h
Tmax (Fed (high-fat breakfast), read-out: Tmax): 3 h
